Laboratory results taken from ChEMBL document CHEMBL1150086, “New steroid acids from Antrodia cinnamomea, a fungal parasite of Cinnamomum micranthum” (J Nat Prod, 1995).
Converted amounts (≈) assume the structure as drawn.

What follows are compounds tested on P388 (assay: Cytotoxicity against mouse P388 cells after 72 hrs). Conditions: P388, 72 h.
Type: functional, cell-based
For `C=C(CC[C@@H](C)[C@H]1CC[C@H]2C3=C(C(=O)[C@H](O)[C@]12C)[C@@]1(C)CC[C@@H](O)[C@@H](C)[C@@H]1CC3=O)C(C)C(=O)O` (stereo partly drawn) [ZHANKUIC ACID C], the IC50 was 5.4 µg/mL (≈ 11.1 µM).
In the case of `C=C(CC[C@@H](C)[C@H]1CC[C@H]2C3=C(C(=O)C[C@]12C)[C@@]1(C)CCC(=O)[C@@H](C)[C@@H]1CC3=O)C(C)C(=O)O` (stereo partly drawn) [ZHANKUIC ACID A], the IC50 was 1.8 µg/mL (≈ 3.84 µM).
`CO[C@H](C(=O)[C@@H](O)[C@@H](C)O)[C@@H]1Cc2cc3cc(O[C@H]4C[C@@H](O[C@@H]5C[C@@H](O)[C@H](O)[C@@H](C)O5)[C@H](O)[C@@H](C)O4)c(C)c(O)c3c(O)c2C(=O)[C@H]1O[C@H]1C[C@@H](O[C@@H]2C[C@@H](O)[C@@H](O[C@@H]3C[C@](C)(O)[C@H](O)[C@@H](C)O3)[C@@H](C)O2)[C@H](O)[C@@H](C)O1` [PLICAMYCIN] was tested, and the IC50 was 0.06 µg/mL (≈ 0.0553 µM).
